Key:
[1] = WST-1 cytotoxicity test, MCF-7; format: cell-based; details: human, MCF-7 cells, 48 h, WST-1, mean ± SD of three experiments, read-out: relative viability (%) compared to untreated control
Description: (§1) In this study, the cytotoxic effects of nine new compounds (2, 3, 4, 5, 6, 7, 8, 9, 10) were tested on 10 human cell lines (nine cancer and one non-cancer cell line). The cell lines were treated with each compound at concentrations of 10 µM and 100 µM for 48 h. The proliferation capacity of the treated cells was determined by WST-1 test and compared against the proliferation rate of the untreated control cells (100%).
(§2) The cell lines Jurkat, MOLT-4, A2780, A549, HT-29, PANC-1, HeLa, MCF-7, SAOS-2, and MRC-5 (all purchased from Sigma Aldrich, Czech Republic) were included in this study. All cell lines were maintained according to the provider’s guidelines, and plated and treated in 96-well plates (500 to 30 × 10^3 cells per well). The tested compounds 2, 3, 4, 5, 6, 7, 8, 9, and 10 were dissolved in 0.1% DMSO and kept in 10 mM stock solutions. Before use, the stock solution was diluted in culture media at ratios of 1:100 and 1:1000. The studied cell lines were treated with the compounds 2, 3, 4, 5, 6, 7, 8, 9, and 10 at concentrations of 10 and 100 µM for 48 h. Control cells were tested in culture media with and without DMSO (0.1%). The cells were also treated with 1 µM doxorubicin as a cytotoxicity control.
(§3) The WST-1 (2-(4-iodophenyl)-3-(4-nitrophenyl)-5-(2,4-disulfophenyl)-2H-tetrazolium, monosodium salt) test (Roche, Mannheim, Germany) was used according to the manufacturer’s protocol to determine cell viability in all 10 cell lines 48 h after treatment with the tested compounds. The cells were analyzed in a Tecan Infinite M200 spectrometer (Tecan Group, Männedorf, Switzerland) at 440 nm.

[2] = WST-1 cytotoxicity test, A549; format: cell-based; details: human, A549 cells, 48 h, WST-1, mean ± SD of three experiments, read-out: relative viability (%) compared to untreated control
Description: as §1, §2, §3

In the case of `Cl.Cl.OC(CNc1ccccc1)CNc1ccccc1` [Compound 9, 1,3-bis(phenylamino)propan-2-ol dihydrochloride], the viability at 48 h, 10 µM ([1]; MCF-7, 10 µM) is reported as 100 ± 4%, the viability at 48 h, 100 µM ([1]; MCF-7, 100 µM) is reported as 98 ± 11% and the viability at 48 h, 10 µM ([2]; A549, 10 µM) is reported as 107 ± 11%. It also gave a viability at 48 h, 100 µM ([2]; A549, 100 µM) of 98 ± 13%.
